Experiments:
HDAC1 = target: T1, HDAC1 (Homo sapiens, UniProt Q13547); test: HDAC enzyme activity inhibition (in vitro), HDAC1 Fluorimetric Drug Discovery Assay Kit; assay type: biochemical; conditions: samples at 100, 1000 and 10000 nM; 37° C. 60 minutes; fluorescence Ex 390, Em 460; read-out: HDAC1 IC50
T1 construct: purchased Enzolifesciences BML-AK511
Procedure, shortened: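 Fluorimetric read-out (Ex 390, Em 460) after a 60 min 37° C enzyme reaction and 30 min 37° C developer step. Tested levels: 0.1-1000 nM (0.1, 1, 10, 100, 1000) on recombinant human HDAC6; 100, 1000 and 10000 nM on HDAC1 kit enzyme.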

HDAC6 human recombinant = target: T2, HDAC6 human recombinant (Homo sapiens, UniProt Q9UBN7); test: HDAC enzyme activity inhibition (in vitro), HDAC6 assay; assay type: biochemical; conditions: samples at 0.1, 1, 10, 100 and 1000 nM; 37° C. 60 minutes; fluorescence Ex 390, Em 460; read-out: HDAC6 IC50
T2 construct: purchased Calbiochem 382180
T2 sequence (Q9UBN7 1-1215): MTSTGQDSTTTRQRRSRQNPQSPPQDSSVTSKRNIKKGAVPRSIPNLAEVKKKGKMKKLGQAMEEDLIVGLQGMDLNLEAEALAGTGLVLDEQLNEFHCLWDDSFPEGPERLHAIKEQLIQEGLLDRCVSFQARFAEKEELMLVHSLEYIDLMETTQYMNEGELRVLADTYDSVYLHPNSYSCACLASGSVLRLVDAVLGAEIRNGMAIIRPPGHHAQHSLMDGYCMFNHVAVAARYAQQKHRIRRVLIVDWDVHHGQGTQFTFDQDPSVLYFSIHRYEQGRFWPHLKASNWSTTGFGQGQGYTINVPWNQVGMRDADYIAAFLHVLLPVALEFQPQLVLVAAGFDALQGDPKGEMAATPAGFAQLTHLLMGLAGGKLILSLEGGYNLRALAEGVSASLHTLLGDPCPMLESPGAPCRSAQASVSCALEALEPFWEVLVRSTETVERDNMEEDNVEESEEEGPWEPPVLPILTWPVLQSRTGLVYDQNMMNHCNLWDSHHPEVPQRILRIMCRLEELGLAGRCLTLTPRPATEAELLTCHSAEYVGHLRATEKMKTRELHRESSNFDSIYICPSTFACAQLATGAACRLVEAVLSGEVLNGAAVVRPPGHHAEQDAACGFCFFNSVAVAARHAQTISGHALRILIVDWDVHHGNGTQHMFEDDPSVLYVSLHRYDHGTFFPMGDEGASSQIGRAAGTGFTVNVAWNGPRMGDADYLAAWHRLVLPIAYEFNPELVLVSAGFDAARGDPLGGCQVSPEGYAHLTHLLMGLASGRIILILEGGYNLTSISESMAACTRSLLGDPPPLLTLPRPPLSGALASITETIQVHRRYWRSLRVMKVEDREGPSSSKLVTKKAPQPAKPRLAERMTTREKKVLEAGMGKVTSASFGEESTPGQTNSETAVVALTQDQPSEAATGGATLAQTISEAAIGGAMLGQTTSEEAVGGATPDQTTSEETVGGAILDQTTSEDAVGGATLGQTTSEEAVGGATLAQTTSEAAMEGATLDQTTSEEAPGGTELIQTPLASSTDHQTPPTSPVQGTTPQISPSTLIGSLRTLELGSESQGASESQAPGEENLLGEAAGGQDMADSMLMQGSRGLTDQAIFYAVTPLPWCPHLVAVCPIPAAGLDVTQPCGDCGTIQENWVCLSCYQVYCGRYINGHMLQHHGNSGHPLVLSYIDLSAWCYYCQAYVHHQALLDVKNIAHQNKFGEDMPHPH
Procedure, shortened: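 Fluorescence (Ex 390, Em 460) read after a 37° C, 60 min enzyme reaction and a further 30 min developer step at 37° C. Uses recombinant human HDAC6; HDAC1 arm dosed at 100, 1000, 10000 nM.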

T1 sequence (Q13547 whole entry): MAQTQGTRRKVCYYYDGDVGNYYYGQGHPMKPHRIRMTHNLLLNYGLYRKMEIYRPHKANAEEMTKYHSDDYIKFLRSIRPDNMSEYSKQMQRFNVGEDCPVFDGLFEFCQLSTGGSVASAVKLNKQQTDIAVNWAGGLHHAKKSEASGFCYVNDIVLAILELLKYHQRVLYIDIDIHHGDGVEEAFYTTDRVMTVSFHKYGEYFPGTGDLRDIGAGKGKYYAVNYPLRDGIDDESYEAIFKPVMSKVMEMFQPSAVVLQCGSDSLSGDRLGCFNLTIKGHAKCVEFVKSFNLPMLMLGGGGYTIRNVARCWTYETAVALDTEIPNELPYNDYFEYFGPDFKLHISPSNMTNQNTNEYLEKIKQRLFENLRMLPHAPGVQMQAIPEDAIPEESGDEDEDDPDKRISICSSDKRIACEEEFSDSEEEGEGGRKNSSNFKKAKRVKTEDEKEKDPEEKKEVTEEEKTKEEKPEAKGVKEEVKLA

IC50 (HDAC1) [nM]	IC50 (HDAC6 human recombinant) [nM]	Compound
> 10000	47	O=c1oc2cc(Cl)c(Br)cc2n1Cc1ccc(-c2nnc(C(F)F)o2)cn1 [Compound 228, 5-bromo-6-chloro-3-((5-(5-(difluoromethyl)-1,3,4-oxadiazole-2-yl)pyridine-2-yl)methyl)benzo[d]oxazole-2(3H)-one]
> 10000	84	CN1CCC(n2c(=O)n(Cc3ccc(-c4nnc(C(F)F)o4)cc3F)c3cc(F)c(-c4ccccc4F)cc32)CC1 [Compound 116, 1-(4-(5-(difluoromethyl)-1,3,4-oxadiazole-2-yl)-2-fluorobenzyl)-6-fluoro-5-(2-fluorophenyl)-3-(1-methylpiperidine-4-yl)-1,3-dihydro-2H-benzo[d]imidazole-2-one]
> 10000	62	CCN1CCN(c2ccc(-c3cc4oc(=O)n(Cc5ccc(-c6nnc(C(F)F)o6)cn5)c4cc3F)cn2)CC1 [Compound 347, 3-((5-(5-(difluoromethyl)-1,3,4-oxadiazole-2-yl)pyridine-2-yl)methyl)-6-(6-(4-ethylpiperazine-1-yl)pyridine-3-yl)-5-fluorobenzo[d]oxazole-2(3H)-one]
> 10000	18	O=c1n(Cc2ccc(-c3nnc(C(F)F)o3)cn2)c2ccc(-c3cccnc3)cc2n1C1CCN(C2COC2)CC1 [Compound 280, 1-((5-(5-(difluoromethyl)-1,3,4-oxadiazole-2-yl)pyridine-2-yl)methyl)-3-(1-(oxetan-3-yl)piperidine-4-yl)-5-(pyridine-3-yl)-1,3-dihydro-2H-benzo[d]imidazole-2-one]
> 10000	28	O=c1n(Cc2ccc(-c3nnc(C(F)F)o3)cc2)c2cc(Cl)c(Cl)cc2n1C1CCN(C2COC2)CC1 [Compound 86, 5,6-dichloro-1-(4-(5-(difluoromethyl)-1,3,4-oxadiazole-2-yl)benzyl)-3-(1-(oxetan-3-yl)piperidine-4-yl)-1,3-dihydro-2H-benzo[d]imidazole-2-one]
> 10000	23	O=c1oc2ccccc2n1Cc1ccc(-c2nnc(C(F)F)o2)cn1 [Compound 246, 3-((5-(5-(difluoromethyl)-1,3,4-oxadiazole-2-yl)pyridine-2-yl)methyl)benzo[d]oxazole-2(3H)-one]
> 10000	17	Cn1c(=O)n(Cc2ccc(-c3nnc(C(F)F)o3)cn2)c2ccc(-c3ccncc3)cc21 [Compound 209, 1-((5-(5-(difluoromethyl)-1,3,4-oxadiazole-2-yl)pyridine-2-yl)methyl)-3-methyl-5-(pyridine-4-yl)-1,3-dihydro-2H-benzo[d]imidazole-2-one]
> 10000	29	CN1CCC(n2c(=O)n(Cc3ccc(-c4nnc(C(F)F)o4)cc3)c3cc(Br)ccc32)CC1 [Compound 126, 5-bromo-3-(4-(5-(difluoromethyl)-1,3,4-oxadiazole-2-yl)benzyl)-1-(1-methylpiperidine-4-yl)-1,3-dihydro-2H-benzo[d]imidazole-2-one]
> 10000	22	O=c1oc2cc(-c3ccc(N4CCNCC4)nc3)c(F)cc2n1Cc1ccc(-c2nnc(C(F)F)o2)cn1 [Compound 345, 3-((5-(5-(difluoromethyl)-1,3,4-oxadiazole-2-yl)pyridine-2-yl)methyl)-5-fluoro-6-(6-(piperazine-1-yl)pyridine-3-yl)benzo[d]oxazole-2(3H)-one]
> 10000	61	CN1CCC(c2ccc3c(c2)sc(=O)n3Cc2ccc(-c3nnc(C(F)F)o3)cn2)CC1 [Compound 331, 3-((5-(5-(difluoromethyl)-1,3,4-oxadiazole-2-yl)pyridine-2-yl)methyl)-6-(1-methylpiperidine-4-yl)benzo[d]thiazole-2(3H)-one]

More lines, now with the values behind:

Compound	IC50 (HDAC1) [nM]	IC50 (HDAC6 human recombinant) [nM]
CN1CCC(n2c(=O)n(Cc3ccc(-c4nnc(C(F)F)o4)cc3F)c3cc(-c4cc(F)ccc4F)ccc32)CC1 [Compound 121, 3-(4-(5-(difluoromethyl)-1,3,4-oxadiazole-2-yl)-2-fluorobenzyl)-5-(2,5-difluorophenyl)-1-(1-methylpiperidine-4-yl)-1,3-dihydro-2H-benzo[d]imidazole-2-one]	> 10000	3150
CN1CCC(n2c(=O)n(Cc3ccc(-c4nnc(C(F)F)o4)cn3)c3cc(-c4cccnc4)ccc32)CC1 [Compound 145, 3-((5-(5-(difluoromethyl)-1,3,4-oxadiazole-2-yl)pyridine-2-yl)methyl)-1-(1-methylpiperidine-4-yl)-5-(pyridine-3-yl)-1,3-dihydro-2H-benzo[d]imidazole-2-one]	> 10000	315
COC(=O)c1cc2ccc(-c3ccc4c(c3)n(C)c(=O)n4Cc3ccc(-c4nnc(C(F)F)o4)cn3)cc2[nH]1 [Compound 244, methyl 6-(1-((5-(5-(difluoromethyl)-1,3,4-oxadiazole-2-yl)pyridine-2-yl)methyl)-3-methyl-2-oxo-2,3-dihydro-1H-benzo[d]imidazole-5-yl)-1H-indole-2-carboxylate]	> 10000	74
CC(=O)N1CCC(n2c(=O)n(Cc3ccc(-c4nnc(C(F)F)o4)cc3F)c3ccccc32)CC1 [Compound 17, 1-(1-acetylpiperidine-4-yl)-3-(4-(5-(difluoromethyl)-1,3,4-oxadiazole-2-yl)-2-fluorobenzyl)-1,3-dihydro-2H-benzo[d]imidazole-2-one]	> 10000	214
O=c1n(Cc2ccc(-c3nnc(C(F)F)o3)cn2)c2cc(F)ccc2n1C1CN(C2COC2)C1 [Compound 302, 3-((5-(5-(difluoromethyl)-1,3,4-oxadiazole-2-yl)pyridine-2-yl)methyl)-5-fluoro-1-(1-(oxetan-3-yl)azetidine-3-yl)-1,3-dihydro-2H-benzo[d]imidazole-2-one]	> 10000	38
CC(=O)N1CCC(n2c(=O)n(Cc3ccc(-c4nnc(C(F)F)o4)cc3)c3cc(F)ccc32)CC1 [Compound 172, 1-(1-acetylpiperidine-4-yl)-3-(4-(5-(difluoromethyl)-1,3,4-oxadiazole-2-yl)benzyl)-5-fluoro-1,3-dihydro-2H-benzo[d]imidazole-2-one]	> 10000	34
CN1CC(n2c(=O)n(Cc3ccc(-c4nnc(C(F)F)o4)cn3)c3cc(F)c(-c4cccnc4)cc32)C1 [Compound 258, 1-((5-(5-(difluoromethyl)-1,3,4-oxadiazole-2-yl)pyridine-2-yl)methyl)-6-fluoro-3-(1-methylazetidine-3-yl)-5-(pyridine-3-yl)-1,3-dihydro-2H-benzo[d]imidazole-2-one]	> 10000	13
O=c1oc2cc(N3CCN(C4COC4)CC3)c(F)cc2n1Cc1ccc(-c2nnc(C(F)F)o2)cn1 [Compound 318, 3-((5-(5-(difluoromethyl)-1,3,4-oxadiazole-2-yl)pyridine-2-yl)methyl)-5-fluoro-6-(4-(oxetan-3-yl)piperazine-1-yl)benzo[d]oxazole-2(3H)-one]	> 10000	56
O=c1n(Cc2ccc(-c3nnc(C(F)F)o3)cn2)c2cc(F)c(-c3cccnc3)cc2n1[C@H]1CCCN(C2COC2)C1 [Compound 297, (S)-1-((5-(5-(difluoromethyl)-1,3,4-oxadiazole-2-yl)pyridine-2-yl)methyl)-6-fluoro-3-(1-(oxetan-3-yl)piperidine-3-yl)-5-(pyridine-3-yl)-1,3-dihydro-2H-benzo[d]imidazole-2-one]	> 10000	10

From patent US20230092890A1, “1, 3, 4-Oxadiazole derivative compounds as histone deacetylase 6 inhibitor, and the pharmaceutical composition comprising the same” (Chong Kun Dang Pharmaceutical Corp., priority 2019, published 2023)
